Data from ChEMBL document CHEMBL1150691, “New lysophosphatidylcholines and monoglycerides from the marine sponge Stelletta sp” (2003).
≈ marks a conversion by molar mass, not a printed value.

Tests used:
Assay type in all cases: functional
Settings in all cases: read-out: ED50 (the source's name)
[1] = tested on: SK-OV-3; test: Cytotoxicity against human SKOV3 cells
[2] = tested on: HCT-15; test: Cytotoxicity against human HCT15 cells
[3] = tested on: SK-MEL-2; test: Cytotoxicity against human SK-MEL-2 cells
[4] = tested on: A549; test: Cytotoxicity against human A549 cells
[5] = tested on: XF498; test: Cytotoxicity against human XF498 cells

Structure (SMILES)	EC50 [1]	EC50 [2]	EC50 [3]	EC50 [4]	EC50 [5]
CC(C)CCCCCCCCCC(C)C(=O)OC[C@@H](O)CO (stereo not given in full)	38.9 mg/L (≈ 123 µM)	18.6 mg/L (≈ 58.8 µM)	21.8 mg/L (≈ 68.9 µM)	20 mg/L (≈ 63.2 µM)	30.7 mg/L (≈ 97 µM)
CC(C)CCCCCCCCCCCCC/C=C\CCCC(=O)OC[C@@H](O)CO	> 30 mg/L	> 30 mg/L	> 30 mg/L	> 30 mg/L	> 30 mg/L
CC(C)CCCCCCCCCCCC/C=C\CC/C=C\CCCC(=O)OC[C@@H](O)CO	> 30 mg/L	> 30 mg/L	> 30 mg/L	> 30 mg/L	> 30 mg/L
C=CCCCCC(C)CCC/C=C\C#CCC[C@H](OC)C(=O)OC[C@@H](O)COP(=O)([O-])CC[N+](C)(C)C (stereo not given in full)	14.5 mg/L (≈ 26.7 µM)	15.1 mg/L (≈ 27.8 µM)	9.1 mg/L (≈ 16.7 µM)	11.8 mg/L (≈ 21.7 µM)	13.6 mg/L (≈ 25 µM)
C=CCCCCC(C)CCC/C=C\C#CCC[C@H](OC)C(=O)OC[C@@H](O)CO (stereo not given in full)	> 30 mg/L	> 30 mg/L	> 30 mg/L	31.3 mg/L (≈ 79.3 µM)	42.5 mg/L (≈ 108 µM)
COC(=O)CCCCCCCCCCCCCCCCO	> 30 mg/L	> 30 mg/L	> 30 mg/L	> 30 mg/L	> 30 mg/L
COC(=O)CCCCCCCCCCCCCCO	35.7 mg/L (≈ 131 µM)	16.5 mg/L (≈ 60.6 µM)	> 30 mg/L	25.9 mg/L (≈ 95.1 µM)	> 30 mg/L
COc1cccc2c1C(=O)c1c(O)c3c(c(O)c1C2=O)C[C@@](O)(C(=O)CO)C[C@@H]3O[C@H]1C[C@H](N)[C@H](O)[C@H](C)O1 [DOXORUBICIN]	0.13 mg/L (≈ 0.239 µM)	0.29 mg/L (≈ 0.534 µM)	0.06 mg/L (≈ 0.11 µM)	0.03 mg/L (≈ 0.0552 µM)	0.19 mg/L (≈ 0.35 µM)
CC(C)CCCCCCCCCC(C)C(=O)OC[C@@H](O)COP(=O)([O-])CC[N+](C)(C)C (stereo not given in full) [STELLETTACHOLINE B]	4.8 mg/L (≈ 10.3 µM)	26.9 mg/L (≈ 57.8 µM)	6.3 mg/L (≈ 13.5 µM)	7.4 mg/L (≈ 15.9 µM)	24.1 mg/L (≈ 51.8 µM)
